Consider seven compounds from patent US20040138230A1, “Heterocyclic substituted piperazines for the treatment of schizophrenia” (priority 2002, published 2004).

Each structure is given as a SMILES string.

In data set [1] the target is serotonin 2A (5HT2A) receptor (Homo sapiens, UniProt P28223).
Text: The ability of the novel compounds of this invention to bind to the dopamine D2 and serotonin 2A (5HT2A) receptors can be determined using conventional radioligand receptor binding assays. All receptors can be heterologously expressed in cell lines and experiments conducted in membrane preparations from the cell lines using procedures outlined below. IC50 concentrations can be determined by nonlinear regression of concentration-dependent reduction in specific binding. The Cheng-Prussoff equation can be used to convert the IC50 to Ki concentrations.
[^3H]Ketanserin binding to Swiss-h5HT2A cell membranes can be carried out in 250 μl of 50 mM Tris-HCl buffer pH 7.4. Duplicate samples containing (in order of addition) test compounds, 1.0 nM [^3H]ketanserin, and approximately 75 μg protein are incubated for 120 minutes at room temperature. Bound radioligand is separated by rapid filtration under reduced pressure through Whatman GF/B glass fiber filters previously treated with 0.3% polyethyleneimine. Radioactivity retained on the filter is determined by liquid scintillation spectrophotometry.
The target in data set [2] is dopamine D2 receptor (Homo sapiens, UniProt P14416).
dopamine D2 receptor, sequence (P14416 whole entry): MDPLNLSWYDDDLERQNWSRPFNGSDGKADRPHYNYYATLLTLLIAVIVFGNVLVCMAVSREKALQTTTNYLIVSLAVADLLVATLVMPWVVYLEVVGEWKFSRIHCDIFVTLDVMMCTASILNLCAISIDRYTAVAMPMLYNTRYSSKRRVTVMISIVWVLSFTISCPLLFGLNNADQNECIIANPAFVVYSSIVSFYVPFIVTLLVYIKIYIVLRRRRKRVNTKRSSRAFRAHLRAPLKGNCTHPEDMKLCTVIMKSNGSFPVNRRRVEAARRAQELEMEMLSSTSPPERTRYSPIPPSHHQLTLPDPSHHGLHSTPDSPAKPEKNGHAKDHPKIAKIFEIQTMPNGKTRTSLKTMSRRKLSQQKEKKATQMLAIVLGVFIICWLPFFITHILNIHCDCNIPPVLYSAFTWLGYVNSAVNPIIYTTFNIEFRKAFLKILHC

serotonin 2A (5HT2A) receptor, sequence (P28223 whole entry): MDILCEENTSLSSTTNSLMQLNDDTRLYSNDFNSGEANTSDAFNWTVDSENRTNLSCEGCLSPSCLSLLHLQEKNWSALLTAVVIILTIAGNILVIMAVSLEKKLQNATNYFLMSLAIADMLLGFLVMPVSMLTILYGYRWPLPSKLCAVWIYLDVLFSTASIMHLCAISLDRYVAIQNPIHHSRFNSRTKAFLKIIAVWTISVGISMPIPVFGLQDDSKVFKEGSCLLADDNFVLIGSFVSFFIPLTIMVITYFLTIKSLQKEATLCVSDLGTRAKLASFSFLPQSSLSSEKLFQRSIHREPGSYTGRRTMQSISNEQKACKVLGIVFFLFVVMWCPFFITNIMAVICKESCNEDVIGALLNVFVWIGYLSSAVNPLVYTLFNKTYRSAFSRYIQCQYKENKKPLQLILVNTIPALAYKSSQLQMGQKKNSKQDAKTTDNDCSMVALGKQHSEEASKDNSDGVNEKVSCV

What is called Ki is the equilibrium dissociation constant of an inhibitor or competing ligand from its target. Higher therefore signals lower affinity. For the compound `Cc1c(Cl)c(CCN2CCN(c3nsc4ccccc34)CC2)cc2c1NC(=O)CC2(C)C` [Example 23, 6-[2-(4-BENZO[D]ISOTHIAZOL-3-YL-PIPERAZIN-1-YL)-ETHYL]-7-CHLORO-4,4,8-TRIMETHYL-3,4-DIHYDRO-1H-QUINOLIN-2-ONE METHANESULFONATE], the Ki is 1 nM in data set [1] and 0.9 nM in data set [2].

A word on the melting point: it is the temperature, or range, at which the solid turns liquid. Compound `CC1Cc2cc(CCCN3CCN(c4nsc5ccccc45)CC3)ccc2NC1=O` (stereo not shown) [Example 59, 6-[3-(4-BENZO[D]ISOTHIAZOL-3-YL-PIPERAZIN-1-YL)-PROPYL]-3-METHYL-3,4-DIHYDRO-1H-QUINOLIN-2-ONE] registered a melting point of 212 °C.

For the compound `CN1Cc2c(c3cc(CCN4CCN(c5nsc6ccccc56)CC4)ccc3[nH]c2=O)C1` [Example 173, 8-[2-(4-BENZO[D]ISOTHIAZOL-3-YL-PIPERAZIN-1-YL)-ETHYL]-2-METHYL-1,2,3,5-TETRAHYDRO-PYRROLO[3,4-C]QUINOLIN-4-ONE], the melting point fell in the range of 205 to 207 °C.

For `COc1cccc2c(N3CCN(CCc4cc(C)c5c(c4)C(C)(C)CC(=O)N5)CC3)nsc12` [Example 31, 6-{2-[4-(7-METHOXY-BENZO[D]ISOTHIAZOL-3-YL)-PIPERAZIN-1-YL]-ETHYL}-4,4,8-TRIMETHYL-3,4-DIHYDRO-1H-QUINOLIN-2-ONE], the Ki in data set [1] was found to be 2 nM; in data set [2], 1 nM.

Turning to `CC1Cc2cc(CCCN3CCN(c4noc5ccccc45)CC3)ccc2NC1=O` (stereo not shown) [Example 60, 6-[3-(4-BENZO[D]ISOXAZOL-3-YL-PIPERAZIN-1-YL)-PROPYL]-3-METHYL-3,4-DIHYDRO-1H-QUINOLIN-2-ONE], the melting point fell in the range of 185 to 187 °C.

With `CN1Cc2c(c3cc(CCCN4CCN(c5nsc6ccccc56)CC4)ccc3[nH]c2=O)C1` [Example 172, 8-[3-(4-BENZO[D]ISOTHIAZOL-3-YL-PIPERAZIN-1-YL)-PROPYL]-2-METHYL-1,2,3,5-TETRAHYDRO-PYRROLO[3,4-C]QUINOLIN-4-ONE], the melting point fell in the range of 206 to 208 °C.

Turning to `CC1(C)Cc2cc(CCN3CCN(c4noc5ccccc45)CC3)ccc2NC1=O` [Example 8, 6-[2-(4-BENZO[D]ISOXAZOL-3-YL-PIPERAZIN-1-YL)-ETHYL]-3,3-DIMETHYL-3,4-DIHYDRO-1H-QUINOLIN-2-ONE], the Ki in data set [1] came out at 5 nM; in data set [2], 7 nM.
